“Also recorded” adds a separate entry of the source.
Tests used:
Assay type in all cases: cell-based, human
[1] = tested on: mPB CD34+ cells; assay: scRNA-seq of CD34+ cells treated with HbF inducers (trajectories, gene signatures); conditions: for Pseudo-trajectory associated with high levels of HBG1/HBG2 expression: Leiden clustering / gene module analysis of HbF inducers
Protocol: To understand the mechanism/cell behavior driving fetal hemoglobin induction, a number of known HbF inducers were evaluated and their signature was elucidated by scRNA-seq. In brief, mPB CD34+ cells were thawed, cultured and treated with selected HbF inducers (Table 11) as described in Example 2 and subjected to single cell gene expression profiling (GEP) at 5 time points capturing the induction of erythroid differentiation from a hematopoietic stem cell progenitor. For sequencing, 10,000 cells (1000 cells/perturbation) were loaded into a single channel of a Chromium Next GEM Chip G and partitioned into droplets with gel beads using a Chromium controller per time point. After emulsion droplets were formed and collected, reverse transcription reactions were incubated at 53° C. for 45 min.
A dimensionality-reduced representation of the count matrix was embedded using UMAP, clustered using Leiden clustering and annotated using differential expression testing (Wilcoxon test) and comparisons to established marker genes. […] Based on these two trajectories, distinct signatures were generated for each transition and a list predictions were made towards each cell state.
Based on the unique/novel cell state (CD34+/CD41^Low+/CD235a+) induced by HU treatment of human hematopoietic stem cell progenitors Applicant postulated that this cell state was reminiscent/analogous to a stress erythropoiesis cell state previously defined in mice but not well characterized in human. […] To evaluate whether HU was inducing a stress erythropoiesis cells state and whether this cell state was responsive to glucocorticoids, the effect of dexamethasone (Dex) was evaluated in the context of HU treatment.
Perturbagen 1081 induced predicted gene signature associated with fetal hemoglobin induction. […] Adult human CD34+ progenitors were treated with Perturbagen 1081 and other known HbF inducers and subjected to scRNA-seq. […] Analysis of Perturbagen 1081 induced gene signature validated the fetal erythropoiesis signature predicted using a computational predictive models (FIG. 16C).

[2] = tested on: CD34+ hematopoietic stem and progenitor cells (HSPCs); assay: Flow cytometry assay of percentage of HbF expressing cells (F-cells) after in vitro erythroid differentiation
Protocol: (§1) Briefly, mobilized peripheral blood (mPB), or bone marrow (BM) derived CD34+ hematopoietic stem and progenitor cells (HSPCs) were thawed and cultured in Hematopoietic stem cell expansion media (Table 7) from Day −4 to Day 0 following by 3-stage in vitro erythroid differentiation (Table 8). Specifically, cells were cultured in erythroid expansion media (phase 1) from Day 0-6, followed by differentiation media (phase 2) between Day 7-10, and culminating with incubation in erythroid maturation media (phase 3) from Day 10-18. Perturbagens reconstituted in DMSO (or appropriate solvent) were added starting at day −2 (corresponding to a stage of CD34+ hematopoietic progenitors). […] As part of the analysis, the expansion (fold growth), viability, and erythroid maturation was measured throughout the course of differentiation. Early erythroid induction was determined by flow cytometry using a six-antibody panel (CD34, CD38, CD36, CD71, CD41, CD235a) (Table 9). Similarly, late erythroid maturation was determined by flow cytometry using a four-antibody panel (Table 10) (CD71, CD235a, CD233, CD49d) tracking increased CD233 expression, with a concomitant loss of CD49d expression, and a shift in CD71^Hi to CD71^low erythroid population (CD235a+) over 18 days (FIG. 2). […]

[3] = tested on: CD34+ hematopoietic stem and progenitor cells (HSPCs); assay: Percentage HbF by HPLC / ion-exchange chromatography in in vitro derived erythrocytes; conditions: Day 14; HU 50 μM, Perturbagen 1081 0.1 μM; n=4-5
Protocol: as §1

[4] = tested on: CD34+ HSPCs; assay: Flow cytometry of the CD34+/CD41Low+/CD235a+ cell state; conditions: HU 50 uM, day 3 mPB CD34+
Protocol: Therefore, in this example, CD34+ HSPCs are cultured 4 days in stem cell maintenance media (days −4 through 0) then switched to the three phases of erythroid differentiation media. Phase 1, erythroid expansion media (days 0 through 6), Phase 2 erythroid differentiation media (days 7 through 10) and Phase 3 erythroid maturation media (days 10 through 18).

Row | Compound | Pseudo-trajectory associated with high levels of HBG1/HBG2 expression [1] | Number of F-cells with HU treatment ([2]; HU 50 uM on CD34+ HSPCs before erythroid differentiation) | HbF induced, HPLC analysis of in vitro derived erythrocytes [3] [%+4.78] | Expression of the glucocorticoid receptor (NR3C1) ([1]; scRNA-seq of HU and HU+Dex conditions) | CD34+/CD41Low+/CD235a+ cell state [4] | F-cell data, glucocorticoid agonist combined with HU (absolute change, fold change) ([2]; combination with HU)
1 | Nc1cccc2c1C(=O)N(C1CCC(=O)NC1=O)C2=O (stereo not shown) [Pomalidomine] | canonical-HbF trajectory | – | – | – | – | –
2 | NC(=O)NO [HU, hydroxyurea] | HU-HbF trajectory | increased number of F-cells | 17.16 | increases the expression of the glucocorticoid receptor (NR3C1); also recorded: induction of NR3C1 | a novel cell state defined by CD34+/CD41^Low+/CD235a+(FIG. 6A) was observed; also recorded: emergence of a cell population defined by CD34+CD41lowCD235a+ expression | –
3 | Cc1ccc2c(NC[C@](O)(CC(C)(C)c3cc(F)cc4c3OCC4)C(F)(F)F)cccc2n1 [Mapracorat] | – | – | – | – | – | synergy with HU

From patent US20230144855A1, “METHODS AND COMPOSITIONS FOR INDUCING FETAL HEMOGLOBIN” (Flagship Pioneering Innovations VI, LLC, priority 2021, published 2023)
